According to patent publication US20230295171A1, “FUSED HETEROAROMATIC PYRROLIDINONES” (Calithera Biosciences, Inc., priority 2009, published 2023):

biological target: SYK (Homo sapiens (Human), UniProt P43405); test: SYK inhibition assay (phosphorylation of FAM-labeled SYK-specific substrate, Caliper LC-3000); format: biochemical; conditions: SYK kinase domain (residues 356-635); 5FAM-KKKKEEIYFFFG-NH2 substrate, ATP, 60 min at RT; pIC50 = -log(IC50), IC50 molar
Protocol: SYK protein is prepared from cDNA encoding human spleen tyrosine kinase and is expressed in insect cells using a baculovirus expression vector. […] The recombinant bacmid DNA is isolated and transfected into Sf9 insect cells. Recombinant virus is harvested 72 h after transfection. High titer viral stock is prepared by infecting Sf9 cells at a multiplicity of infection (MOI) of approximately 0.01. A suspension of Sf9 cells (10 L) is infected with recombinant virus (MOI=5) and is incubated in a Wave Bioreactor (GE-Healthcare) for 48 h. The cells are harvested and stored at −80° C.
To purify the expressed protein, the frozen Sf9 cells (10 L) are broken into small (<1 cm) particles and suspended in a lysis buffer (300 mL) containing 20 mM Tris (pH 7.6), 0.25 mM TCEP, 100 mM NaCl, 5% glycerol and a protease inhibitor. The suspension is stirred at RT until completely thawed, lysed an additional 2-4 min on a rotary blade homogenizer, and then centrifuged at 4200 g for 1 h. Following centrifugation, the supernatant is poured through cheese cloth and combined with a nickel chelating resin (Probond Resin™, Invitrogen) which is pre-equilibrated in a wash buffer containing 10 mM Tris (pH 7.6), 0.25 mM TCEP, 300 mM NaCl, 5% glycerol, and 20 mM imidazole. The mixture is agitated for 3 h in a cold room and then centrifuged at 900 g for 10 min. The resin is dispersed in wash buffer (50 mL), centrifuged for 10 min at 900 g, re-dispersed in a small amount of wash buffer (5 mL), and then pour into a disposable Poly-Prep chromatography column, through which wash buffer is passed by gravity until no protein is observed in coomassie buffer (about 120 mL of wash buffer). An elution buffer (30 mL) containing 10 mM HEPES (pH 7.4), 150 mM NaCl, 10% glycerol, 5 mM DTT, and 400 mM imidazole is used to elute the SYK protein from the resin. The eluate is concentrated (5 mL) and further purified on a Superdex 200 column (1.2 mL/min for 160 min, 10 mM HEPES (pH 7.4), 10 mM NaCl, 10 mM MgCl, 0.1 mM EDTA, and 0.25 mM TCEP). The chromatographed fractions are run on SDS-PAGE and the requisite fractions are pooled and concentrated. Final delivery buffer is 10 mM HEPES (pH 7.4), 10 mM Methione, 150 mM NaCl, 10% glycerol, 5 mM DTT.
SYK inhibition is determined using a black 384 well plate format in buffer containing 50 mM HEPES, 10 mM NaCl, 10 mM MgCl2, 0.2 mM EDTA, 0.01% EDA (Brij® 35), 1 mM DTT, and 0.1 mg/ml BSA at pH 7.3. Each test compound is prepared in DMSO using 2-fold serial dilutions for 11 data points, which are added to the buffer so that each dilution contains 3% DMSO. […] The reaction mixture is incubated at RT for 60 min, and quenched by adding 50 mM Hepes, 30 mM EDTA, 0.1% Triton X-100 (pH 7.3). To quantify the fluorescent-labeled substrate and product following reaction, the test plate is loaded on a Caliper LC-3000, which measures percent of conversion by microfluidic-based separation. Corresponding IC50 values are calculated by non-linear curve fitting of the compound concentrations and percent of inhibition to the standard IC50 equation and reported as pIC50, i.e., −log(IC50), where IC50 is molar concentration.

Structure (SMILES)	SYK Inhibition (pIC50)
Cc1cccc(Nc2nc(N[C@@H]3CCCC[C@@H]3O)nc3c2C(=O)NC3)c1 (relative stereo) [Example 11, cis-2-(2-Hydroxycyclohexylamino)-4-(m-tolylamino)-6,7-dihydro-5H-pyrrolo[3,4-d]pyrimidin-5-one]	5.9
Cc1cccc(Nc2nc(N[C@@H]3COC[C@@H]3N)cc3c2C(=O)NC3)c1 (relative stereo) [Example 58, 6-(cis-4-Aminotetrahydrofuran-3-ylamino)-4-(m-tolylamino)-1H-pyrrolo[3,4-c]pyridin-3(2H)-one]	5.8
Cn1cc(-c2nc(N[C@@H]3CC(F)(F)C[C@@H]3N)c(F)c3c2C(=O)NC3)cn1 (relative stereo) [Example 66, 6-(cis-2-Amino-4,4-difluorocyclopentylamino)-7-fluoro-4-(1-methyl-1H-pyrazol-4-yl)-1H-pyrrolo[3,4-c]pyridin-3(2H)-one]	6.3
Cn1cc(-c2nc(N[C@@H]3CCCC(F)(F)[C@@H]3N)c(F)c3c2C(=O)NC3)cn1 (relative stereo) [Example 67, 6-(cis-2-Amino-3,3-difluorocyclohexylamino)-7-fluoro-4-(1-methyl-1H-pyrazol-4-yl)-1H-pyrrolo[3,4-c]pyridin-3(2H)-one]	7.4
N[C@@H]1[C@H](Nc2nc(-c3cnn(C(F)F)c3)c3c(c2F)CNC3=O)CCCC1(F)F (relative stereo) [Example 68, 6-(cis-2-Amino-3,3-difluorocyclohexylamino)-4-(1-(difluoromethyl)-1H-pyrazol-4-yl)-7-fluoro-1H-pyrrolo[3,4-c]pyridin-3(2H)-one]	7.0
N[C@@H]1[C@H](Nc2nc(-c3cnn(C4CC4)c3)c3c(c2F)CNC3=O)CCCC1(F)F (relative stereo) [Example 69, 6-(cis-2-amino-3,3-difluorocyclohexylamino)-4-(1-cyclopropyl-1H-pyrazol-4-yl)-7-fluoro-1H-pyrrolo[3,4-c]pyridin-3(2H)-one]	6.8
Cc1cccc(Nc2nc(N[C@H]3COCC[C@H]3N)cc3c2C(=O)NC3)c1 [Example 86, 6-((3R,4R)-4-Aminotetrahydro-2H-pyran-3-ylamino)-4-(m-tolylamino)-1H-pyrrolo[3,4-c]pyridin-3(2H)-one]	5.6
